Data reported in patent publication US20250019377A1 (JACOBIO PHARMACEUTICALS CO., LTD, priority 2021, published 2025).

Columns and labels:
SW620 cells (K-Ras G12V) = test: 2D cell growth inhibition assay, SW620; format: cell-based; settings: Homo sapiens, SW-620, 144 h, 6 days, absolute IC50
AGS cells (K-Ras G12D) = test: 2D cell growth inhibition assay, AGS; format: cell-based; settings: Homo sapiens, 144 h, 6 days, absolute IC50
K-Ras G12V [1] = biological target: T1, K-Ras G12V (Homo sapiens, UniProt P01116, G12V); test: SOS1 catalyzed nucleotide exchange assay (GDP form K-Ras), K-Ras G12V; settings: read-out: K-Ras G12V GDP Biochemical Activity (IC50)
T1 sequence (P01116 1-169 isoform P01116-2 G12V): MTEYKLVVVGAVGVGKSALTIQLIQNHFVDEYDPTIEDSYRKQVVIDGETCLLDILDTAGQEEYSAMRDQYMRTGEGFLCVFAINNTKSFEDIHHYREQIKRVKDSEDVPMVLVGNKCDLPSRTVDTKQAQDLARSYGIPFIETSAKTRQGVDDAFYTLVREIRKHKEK

[2] = test system: AsPC-1 cells (K-Ras G12D); test: 2D cell growth inhibition assay, AsPC-1; format: cell-based; settings: Homo sapiens, ASPC1, 144 h, AsPC-1, K-Ras G12D, 6 days, absolute IC50
K-Ras G12V [3] = biological target: T1, K-Ras G12V; test: biochemical
[4] = test system: p-ERK in AGS cells (K-Ras G12D); test: Phospho-ERK1/2(THR202/TYR204) HTRF assay, AGS; format: cell-based; settings: Homo sapiens, 2 h, 2 hours incubation
[5] = test system: p-ERK in SW620 cells (K-Ras G12V); test: Phospho-ERK1/2(THR202/TYR204) HTRF assay, SW620; format: cell-based; settings: Homo sapiens, SW-620, 2 h, 2 hours incubation

SMILES	IC50 (SW620 cells (K-Ras G12V)) [nM]	IC50 (AGS cells (K-Ras G12D)) [nM]	IC50 (K-Ras G12V [1]) [nM]	IC50 [2] [nM]	IC50 (K-Ras G12V [3]) [nM]	IC50 [4] [nM]	IC50 [5] [nM]
C#Cc1c(F)ccc2cc(O)cc(-c3ncc4c(N5CCOCC(F)(F)C5)nc(OC[C@@]56CCCN5C[C@H](F)C6)nc4c3F)c12 [Compound 18, 4-(4-(6,6-difluoro-1,4-oxazepan-4-yl)-8-fluoro-2-(((2R,7aS)-2-fluorotetrahydro-1H-pyrrolizin-7a(5H)-yl)methoxy)pyrido[4,3-d]pyrimidin-7-yl)-5-ethynyl-6-fluoronaphthalen-2-ol trifluoroacetic acid]	5.68	7.96	1.41	95.7	107	5.99	2.1
Oc1cc(-c2ncc3c(N4CCCOCC4)nc(OC[C@@]45CCCN4C[C@H](F)C5)nc3c2F)c2c(F)c(F)ccc2c1 [Compound 40, 5,6-difluoro-4-(8-fluoro-2-(((2R,7aS)-2-fluorotetrahydro-1H-pyrrolizin-7a(5H)-yl)methoxy)-4-(1,4-oxazepan-4-yl)pyrido[4,3-d]pyrimidin-7-yl)naphthalen-2-ol trifluoroacetic acid]	24.8	9.24	1.94	91.3	124	5.68	14.1
C#Cc1c(F)ccc2cc(O)cc(-c3ncc4c(N5CC(F)(F)COCC5C)nc(OC[C@@]56CCCN5C[C@H](F)C6)nc4c3F)c12 (stereo partly drawn) [Compound 105, 4-(4-(6,6-difluoro-3-methyl-1,4-oxazepan-4-yl)-8-fluoro-2-(((2R,7aS)-2-fluorotetra-hydro-1H-pyrrolizin-7a(5H)-yl)methoxy)pyrido[4,3-d]pyrimidin-7-yl)-5-ethynyl-6-fluoronaphthalen-2-ol]	104	53.6	2.08	326	378	23	34.8
C#Cc1c(F)ccc2cc(O)cc(-c3ncc4c(N5[C@H]6COC[C@@H](C)[C@@H]5C6)nc(OC[C@@]56CCCN5C[C@H](F)C6)nc4c3F)c12 [Compound 111, 5-ethynyl-6-fluoro-4-(8-fluoro-2-(((2R,7aS)-2-fluorotetrahydro-1H-pyrrolizin-7a(5H)-yl)methoxy)-4-((1R,5S,6S)-5-methyl-3-oxa-7-azabicyclo[4.1.1]octan-7-yl)pyrido [4,3-d]pyrimidin-7-yl)naphthalen-2-ol]	73.8	86	4.21	390	> 1000	17.4	84
C#Cc1c(F)ccc2cc(O)cc(-c3ncc4c(N5CCCOC6CC65)nc(OC[C@@H]5CCCN5C)nc4c3F)c12 (stereo partly drawn) [Compound 113, 4-(4-(2-oxa-6-azabicyclo[5.1.0]octan-6-yl)-8-fluoro-2-(((S)-1-methylpyrrolidin-2-yl)methoxy)pyrido[4,3-d]pyrimidin-7-yl)-5-ethynyl-6-fluoronaphthalen-2-ol]	22.4	9.76	1.66	121	29	1.83	10.4

More lines, now with the values ahead:

IC50 (SW620 cells (K-Ras G12V)) [nM]	IC50 (AGS cells (K-Ras G12D)) [nM]	IC50 (K-Ras G12V [1]) [nM]	IC50 [2] [nM]	IC50 (K-Ras G12V [3]) [nM]	IC50 [4] [nM]	IC50 [5] [nM]	SMILES
205	75.4	2.12	323	483	19.4	40	C#Cc1c(F)ccc2cc(O)cc(-c3nc(C(F)F)c4c(N5CCCOCC5)nc(OC[C@@]56CCCN5C[C@H](F)C6)nc4c3F)c12 [Compound 34, 4-(5-(difluoromethyl)-8-fluoro-2-(((2R,7aS)-2-fluorotetrahydro-1H-pyrrolizin-7a(5H)-yl)methoxy)-4-(1,4-oxazepan-4-yl)pyrido[4,3-d]pyrimidin-7-yl)-5-ethynyl-6-fluoronaphthalen-2-ol trifluoroacetic acid]
9.2	5.63	5.81	88.5	22.1	1.42	11.9	C#Cc1c(F)ccc2cc(O)cc(-c3nc(C4CC4)c4c(N5CCCOCC5)nc(OC[C@@]56CCCN5C[C@H](F)C6)nc4c3F)c12 [Compound 35, 4-(5-cyclopropyl-8-fluoro-2-(((2R,7aS)-2-fluorotetrahydro-1H-pyrrolizin-7a(5H)-yl)methoxy)-4-(1,4-oxazepan-4-yl)pyrido[4,3-d]pyrimidin-7-yl)-5-ethynyl-6-fluoronaphthalen-2-ol trifluoroacetic acid]
112	37.3	7.96	734	267	12.4	48.8	C#Cc1c(F)ccc2cc(O)cc(-c3nc(CO)c4c(N5CCCOCC5)nc(OC[C@@]56CCCN5C[C@H](F)C6)nc4c3F)c12 [Compound 36, 5-ethynyl-6-fluoro-4-(8-fluoro-2-(((2R,7aS)-2-fluorotetrahydro-1H-pyrrolizin-7a(5H)-yl)methoxy)-5-(hydroxymethyl)-4-(1,4-oxazepan-4-yl)pyrido[4,3-d]pyrimidin-7-yl)naphthalen-2-ol trifluoroacetic acid]
41.6	51.7	4.38	106	152	17.7	40.9	C#Cc1c(F)ccc2cc(O)cc(-c3nc(SC)c4c(N5CCCOCC5)nc(OC[C@@]56CCCN5C[C@H](F)C6)nc4c3F)c12 [Compound 47, 5-ethynyl-6-fluoro-4-(8-fluoro-2-(((2R,7aS)-2-fluorotetrahydro-1H-pyrrolizin-7a(5H)-yl)methoxy)-5-(methylthio)-4-(1,4-oxazepan-4-yl)pyrido[4,3-d]pyrimidin-7-yl)naphthalen-2-ol trifluoroacetic acid]
10.3	9.66	1.69	74.2	22	2.27	8.5	C#Cc1c(F)ccc2cc(O)cc(-c3nc(OC4CC4)c4c(N5CCCOCC5)nc(OC[C@@]56CCCN5C[C@H](F)C6)nc4c3F)c12 [Compound 51, 4-(5-cyclopropoxy-8-fluoro-2-(((2R,7aS)-2-fluorotetrahydro-1H-pyrrolizin-7a(5H)-yl)methoxy)-4-(1,4-oxazepan-4-yl)pyrido[4,3-d]pyrimidin-7-yl)-5-ethynyl-6-fluoronaphthalen-2-ol trifluoroacetic acid]
5.66	8.11	1.88	40.4	16.6	9.66	2.43	C#Cc1c(F)ccc2cc(O)cc(-c3nc(OC(C)C)c4c(N5CCCOCC5)nc(OC[C@@]56CCCN5C[C@H](F)C6)nc4c3F)c12 [Compound 52, 5-ethynyl-6-fluoro-4-(8-fluoro-2-(((2R,7aS)-2-fluorotetrahydro-1H-pyrrolizin-7a(5H)-yl)methoxy)-5-isopropoxy-4-(1,4-oxazepan-4-yl)pyrido[4,3-d]pyrimidin-7-yl)naphthalen-2-ol trifluoroacetic acid]
91	25.4	3.01	320	140	5.47	34.8	C#Cc1c(F)ccc2cc(O)cc(-c3nc(C)c4c(N5CCCOCC5)nc(OC[C@@]56CCCN5C[C@H](F)C6)nc4c3F)c12 [Compound 121, 5-ethynyl-6-fluoro-4-(8-fluoro-2-(((2R,7aS)-2-fluorotetrahydro-1H-pyrrolizin-7a(5H)-yl)methoxy)-5-methyl-4-(1,4-oxazepan-4-yl)pyrido[4,3-d]pyrimidin-7-yl) naphthalen-2-ol]
